From ChEMBL document CHEMBL1143543, “Potent 1,3,4-trisubstituted pyrrolidine CCR5 receptor antagonists: effects of fused heterocycles on antiviral activity and pharmacokinetic properties” (Bioorg Med Chem Lett, 2005)

Columns and labels:
[1] = tested on: Human immunodeficiency virus 1; assay: Antiinfective activity in HeLa cells against HIV-1(BAL) in the absence of 50% of human serum; format: functional; conditions: Human immunodeficiency virus 1, HeLa
[2] = tested on: Human immunodeficiency virus 1; assay: Antiinfective activity in HeLa cells against HIV-1(BAL) in the presence of 50% of human serum; format: functional; conditions: Human immunodeficiency virus 1, HeLa
[3] = target: C-C chemokine receptor type 5 (Homo sapiens, UniProt P51681); assay: Displacement of [125I]-MIP-1 alpha from human C-C chemokine receptor type 5 expressed on CHO cell membranes
[4] = Oral bioavailability in rat; format: ADME, organism-based; conditions: in vivo
[5] = Bioavailability in rat; format: ADME, organism-based; conditions: in vivo
[6] = Half life in rat; format: ADME; conditions: in vivo
[7] = Plasma clearance in rat; format: ADME, organism-based; conditions: read-out: Clp
[8] = target: Voltage-gated L-type calcium channel (Homo sapiens, UniProt Q13936+Q13698+Q01668+O60840); assay: Inhibitory concentration against L-type [Ca2+] channel; format: protein assay
[9] = Inhibitory concentration against PBM cells; format: functional; conditions: PBMC
[10] = target: Voltage-gated inwardly rectifying potassium channel KCNH2 (Homo sapiens, UniProt Q12809); assay: Inhibitory activity against human Potassium channel HERG
Sequence of Voltage-gated inwardly rectifying potassium channel KCNH2 (Q12809 whole entry): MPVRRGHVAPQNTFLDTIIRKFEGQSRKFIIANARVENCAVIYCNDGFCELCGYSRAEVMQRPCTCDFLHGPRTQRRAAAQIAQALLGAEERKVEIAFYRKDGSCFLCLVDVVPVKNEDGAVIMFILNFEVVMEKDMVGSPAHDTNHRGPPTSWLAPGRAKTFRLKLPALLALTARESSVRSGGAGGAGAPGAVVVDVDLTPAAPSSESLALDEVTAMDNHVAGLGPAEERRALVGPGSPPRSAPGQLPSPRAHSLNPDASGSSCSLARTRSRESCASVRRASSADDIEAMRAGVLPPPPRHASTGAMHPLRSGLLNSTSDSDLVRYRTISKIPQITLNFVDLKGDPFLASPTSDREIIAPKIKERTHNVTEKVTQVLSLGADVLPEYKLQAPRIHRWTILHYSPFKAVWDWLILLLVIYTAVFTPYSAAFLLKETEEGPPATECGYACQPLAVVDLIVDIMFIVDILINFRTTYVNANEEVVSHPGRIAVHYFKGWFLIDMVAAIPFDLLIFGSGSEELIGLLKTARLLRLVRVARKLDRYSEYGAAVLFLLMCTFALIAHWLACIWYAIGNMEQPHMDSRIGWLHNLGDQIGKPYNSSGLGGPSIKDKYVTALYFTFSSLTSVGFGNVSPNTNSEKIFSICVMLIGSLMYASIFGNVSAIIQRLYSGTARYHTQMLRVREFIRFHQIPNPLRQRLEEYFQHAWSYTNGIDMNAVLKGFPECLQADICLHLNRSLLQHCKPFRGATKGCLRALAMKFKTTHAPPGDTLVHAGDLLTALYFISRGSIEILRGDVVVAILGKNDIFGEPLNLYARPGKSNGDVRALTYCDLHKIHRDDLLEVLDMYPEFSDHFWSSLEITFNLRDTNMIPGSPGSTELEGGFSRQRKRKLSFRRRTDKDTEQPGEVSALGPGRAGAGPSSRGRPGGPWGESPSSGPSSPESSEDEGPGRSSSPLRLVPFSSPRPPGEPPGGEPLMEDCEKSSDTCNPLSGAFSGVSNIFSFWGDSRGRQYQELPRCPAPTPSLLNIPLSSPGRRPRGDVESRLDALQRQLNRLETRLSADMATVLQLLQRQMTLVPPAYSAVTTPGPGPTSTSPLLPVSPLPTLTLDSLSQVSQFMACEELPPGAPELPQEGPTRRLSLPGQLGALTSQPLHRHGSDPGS

Sequence of C-C chemokine receptor type 5 (P51681 whole entry): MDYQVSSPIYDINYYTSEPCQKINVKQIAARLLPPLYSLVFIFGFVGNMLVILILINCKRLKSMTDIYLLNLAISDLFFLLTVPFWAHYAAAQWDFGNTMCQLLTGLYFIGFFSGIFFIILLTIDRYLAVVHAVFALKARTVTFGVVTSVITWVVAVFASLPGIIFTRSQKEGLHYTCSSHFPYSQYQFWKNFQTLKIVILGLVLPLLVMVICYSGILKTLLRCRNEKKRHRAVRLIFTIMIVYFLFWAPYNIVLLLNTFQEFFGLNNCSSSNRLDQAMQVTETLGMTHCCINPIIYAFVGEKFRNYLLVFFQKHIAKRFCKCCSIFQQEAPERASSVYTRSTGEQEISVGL

| Structure (SMILES) | IC90 [1] | IC90 [2] | IC50 [3] | other results |
| --- | --- | --- | --- | --- |
| O=C(O)[C@@H](C1CCCCC1)N1C[C@H](CN2CCC(Cn3cnc4ccccc43)CC2)[C@@H](c2ccccc2)C1 | 100 nM | > 300 nM | 6.3 nM | – |
| O=C(O)[C@@H](CC1CCC1)N1C[C@H](CN2CCC(c3nnc4ccccn34)CC2)[C@@H](c2ccccc2)C1 | 100 nM | > 300 nM | 12 nM | – |
| O=C(O)[C@@H](C1CCCCC1)N1C[C@H](CN2CCC(n3cnc(=O)c4ccccc43)CC2)[C@@H](c2ccccc2)C1 | – | – | 100 nM | – |
| O=C(O)[C@@H](C1CCCCC1)N1C[C@H](CN2CCC(CCCn3cnc4ccccc43)CC2)[C@@H](c2ccccc2)C1 | 1.2 nM | 33 nM | 0.84 nM | bioavailability [4]: < 2% |
| O=C(O)[C@@H](CC1CCC1)N1C[C@H](CN2CCC(c3cnc4ccc(-c5ccccc5)cn34)CC2)[C@@H](c2cccc(F)c2)C1 | 11 nM | 300 nM | 0.8 nM | bioavailability [5]: 19%; half-life [6]: 96 min; clearance [7]: 83 mL/min/kg |
| O=C(O)[C@@H](C1CCCCC1)N1C[C@H](CN2CCC(CCn3cnc4ccccc43)CC2)[C@@H](c2ccccc2)C1 | 100 nM | > 300 nM | 2.6 nM | – |
| CCc1ccn2c(C3CCN(C[C@H]4CN([C@H](CC5CCC5)C(=O)O)C[C@@H]4c4cccc(F)c4)CC3)cnc2c1 | 0.13 nM | 11 nM | 0.35 nM | bioavailability [5]: 11%; half-life [6]: 150 min; clearance [7]: 67 mL/min/kg |
| O=C(O)[C@@H](CC1CCC1)N1C[C@H](CN2CCC(c3cnc4ccc(Cl)cn34)CC2)[C@@H](c2cccc(F)c2)C1 | 1.2 nM | 100 nM | 0.89 nM | bioavailability [5]: 26%; half-life [6]: 42 min; clearance [7]: 16 mL/min/kg; IC50 [8]: > 10000 nM |
| O=C(O)[C@@H](C1CCCCC1)N1C[C@H](CN2CCC(n3cnc4ccccc4c3=O)CC2)[C@@H](c2ccccc2)C1 | – | – | 12 nM | – |
| O=C(O)[C@@H](CC1CCC1)N1C[C@H](CN2CCC(c3cnc4ccc(F)cn34)CC2)[C@@H](c2cccc(F)c2)C1 | 3.7 nM | 300 nM | 0.3 nM | bioavailability [5]: 38%; half-life [6]: 48 min; clearance [7]: 19 mL/min/kg |
| O=C(O)[C@@H](C1CCCCC1)N1C[C@H](CN2CCC(n3c(=O)[nH]c4ccccc43)CC2)[C@@H](c2ccccc2)C1 | – | – | 63 nM | – |
| O=C(O)[C@@H](CC1CCC1)N1C[C@H](CN2CCC(c3cnc4ccc([N+](=O)[O-])cn34)CC2)[C@@H](c2cccc(F)c2)C1 | 100 nM | 300 nM | 0.6 nM | bioavailability [5]: 61%; half-life [6]: 12 min; clearance [7]: 120 mL/min/kg |
| O=C(O)[C@@H](C1CCCCC1)N1C[C@H](CN2CCC(n3cnc4ncccc43)CC2)[C@@H](c2ccccc2)C1 | – | – | 23 nM | – |
| O=C(O)[C@@H](C1CCCCC1)N1C[C@H](CN2CCC(n3nnc4ccccc43)CC2)[C@@H](c2ccccc2)C1 | 100 nM | – | 8.2 nM | – |
| O=C(O)[C@@H](CC1CCC1)N1C[C@H](CN2CCC(CCCc3ccccc3)CC2)[C@@H](c2ccccc2)C1 | – | – | – | IC95 [9]: < 8 nM |
| Cc1cc(C)n2ncc(C3CCN(C[C@H]4CN([C@H](CC5CCC5)C(=O)O)C[C@@H]4c4cccc(F)c4)CC3)c2n1 | > 300 nM | > 300 nM | 7 nM | – |
| O=C(O)[C@@H](CC1CCC1)N1C[C@H](CN2CCC(c3cnc4ccccn34)CC2)[C@@H](c2cccc(F)c2)C1 | 1.2 nM | 33 nM | 0.42 nM | bioavailability [5]: 4%; half-life [6]: 126 min; clearance [7]: 38 mL/min/kg; IC50 [8]: > 10000 nM |
| O=C(O)[C@@H](CC1CCC1)N1C[C@H](CN2CCC(c3cnc4cnccn34)CC2)[C@@H](c2cccc(F)c2)C1 | 11 nM | 100 nM | 1 nM | – |
| O=C(O)[C@@H](CC1CCC1)N1C[C@H](CN2CCC(c3cn4cccnc4n3)CC2)[C@@H](c2ccccc2)C1 | – | – | 200 nM | – |
| O=C(O)[C@@H](C1CCCCC1)N1C[C@H](CN2CCC(n3cnc4ccccc43)CC2)[C@@H](c2ccccc2)C1 | 11 nM | 100 nM | 2.5 nM | bioavailability [4]: < 2% |
| O=C(O)[C@@H](CC1CCC1)N1C[C@H](CN2CCC(c3cnc4c(Cl)cc(Cl)cn34)CC2)[C@@H](c2cccc(F)c2)C1 | 33 nM | 300 nM | 0.5 nM | bioavailability [5]: 39%; half-life [6]: 24 min; clearance [7]: 20 mL/min/kg |
| O=C(O)[C@@H](CC1CCC1)N1C[C@H](CN2CCC(c3cnc4ccc(C(F)(F)F)cn34)CC2)[C@@H](c2cccc(F)c2)C1 | 11 nM | 300 nM | 0.82 nM | bioavailability [5]: 26%; IC50 [10]: < 10000 nM; half-life [6]: 48 min; clearance [7]: 18 mL/min/kg; IC50 [8]: > 10000 nM |
| O=C(O)[C@@H](C1CCCCC1)N1C[C@H](CN2CCC(n3cnc4cccnc43)CC2)[C@@H](c2ccccc2)C1 | 33 nM | – | 2.8 nM | – |
| O=C(O)[C@@H](C1CCCCC1)N1C[C@H](CN2CCC(c3c[nH]c4ccccc34)CC2)[C@@H](c2ccccc2)C1 | – | – | 10 nM | – |
| O=C(O)[C@@H](CC1CCC1)N1C[C@H](CN2CCC(c3ncc4ccccn34)CC2)[C@@H](c2cccc(F)c2)C1 | > 300 nM | > 300 nM | 13 nM | – |
| O=C(O)[C@@H](CC1CCC1)N1C[C@H](CN2CCC(c3cnc4ncccn34)CC2)[C@@H](c2cccc(F)c2)C1 | 33 nM | 100 nM | 3.5 nM | – |
| O=C(O)[C@@H](CC1CCC1)N1C[C@H](CN2CCC(c3cn4ccncc4n3)CC2)[C@@H](c2cccc(F)c2)C1 | 300 nM | 300 nM | 29 nM | – |
| O=C(O)[C@@H](CC1CCC1)N1C[C@H](CN2CCC(c3cnc4cccnn34)CC2)[C@@H](c2cccc(F)c2)C1 | 11 nM | 300 nM | 3 nM | – |
| O=C(O)[C@@H](CC1CCC1)N1C[C@H](CN2CCC(c3cn4ccccc4n3)CC2)[C@@H](c2cccc(F)c2)C1 | – | – | 65 nM | – |
